Laboratory results: patent US11439148B2, “Pyrimidine derivatives” (SYNGENTA PARTICIPATIONS AG, priority 2017, dated 2022)
“And” between values parts separate entries of the source, which are not always exact repeats. Equal entries are not always repeated.

Key:
Assay type in all cases: in vivo
[1] = tested on: Abutilon theophrasti (ABUTH); test: Adjuvant efficacy with nicosulfuron, glasshouse spray test; settings: nicosulfuron WG, mean over 15 and 60 g/ha and 3 replicates; adjuvant 0.2% v/v (none in No Adjuvant rows); % leaf area killed, 21 days after application; Tests 1-4 separate runs
Description: (§1) The efficacy of adjuvants 1-12 as adjuvants for the herbicide nicosulfuron were tested in a glasshouse against four weed species sown into standard soil in pots and cultivated under controlled conditions in a glasshouse (at 24/18° C. day/night; 16 hours light; 65% humidity). Nicosulfuron was added to the spray tank as a standard WG (water dispersible granule) formulation.
(§2) The spray tests were also carried out using nicosulfuron in conjunction with adjuvants 1-12. The adjuvant was added to the spray solution at a rate of 0.2% v/v. All spray solutions also contained 12.5% v/v of iso-Propanol. The weed species and their BBCH growth stage at spraying were Abutilon theophrasti (ABUTH; growth stage 13), Chenopodium album (CHEAL; growth stage 13-14), Digitaria sanguinalis (DIGSA; growth stage 11), and Setaria viridis (SETVI; growth stage 13). Each spray test was replicated three times. The test plants were then grown in a glasshouse under controlled conditions (at 24/18° C. day/night; 16 hours light; 65% humidity) and watered twice a day. The efficacy of the herbicide was assessed visually and expressed as a percentage of the leaf area killed. Samples were assessed at a time period of 21 days following application. The results shown in Table 1 below are mean averages over the two rates of nicosulfuron, and the three replicates.

[2] = tested on: Chenopodium album (CHEAL); test: as above; settings: nicosulfuron WG, mean over 15 and 60 g/ha and 3 replicates; adjuvant 0.2% v/v (none in No Adjuvant rows); % leaf area killed, 21 days after application; Tests 1-4 separate runs
Description: as §1, §2

[3] = tested on: Digitaria sanguinalis (DIGSA); test: as above; settings: nicosulfuron WG, mean over 15 and 60 g/ha and 3 replicates; adjuvant 0.2% v/v (none in No Adjuvant rows); % leaf area killed, 21 days after application; Tests 1-4 separate runs
Description: as §1, §2

Setaria viridis (SETVI) [4] = test: as above; settings: nicosulfuron WG, mean over 15 and 60 g/ha and 3 replicates; adjuvant 0.2% v/v (none in No Adjuvant rows); % leaf area killed, 21 days after application; Tests 1-4 separate runs
Description: as §1, §2

[5] = tested on: four weed species (ABUTH, CHEAL, DIGSA, SETVI); test: Adjuvant efficacy with nicosulfuron, glasshouse spray test, average over all species; settings: nicosulfuron WG, mean over 15 and 60 g/ha, adjuvant 0.2% v/v (none in No Adjuvant rows), 21 days, average of ABUTH
Description: as §1, §2

[6] = tested on: Abutilon theophrasti (ABUTH); test: Adjuvant efficacy with fomesafen, glasshouse spray test; settings: fomesafen sodium salt SL, mean over 100 and 200 g/ha and 3 replicates; adjuvant 0.2% v/v (none in No Adjuvant rows); % leaf area killed, 21 days after application; Tests 1-4 separate runs
Description: as §1, with “fomesafen (as the sodium salt)” for “nicosulfuron”, “species,” for “species”, “light,” for “light;”, “Fomesafen sodium salt” for “Nicosulfuron”, “SL (soluble concentrate)” for “WG (water dispersible granule)”
(§3) The spray tests were also carried out using fomesafen in conjunction with adjuvants 1-12. Unless otherwise stated, the adjuvants were added to the spray solution at a rate of 0.2% v/v. All spray solutions also contained 12.5% v/v of iso-Propanol to normalise the retention of the sprays on the hydrophobic plant surfaces. The weed species and their BBCH growth stage at spraying were Abutilon theophrasti (ABUTH; growth stage 12-13), Chenopodium album (CHEAL; growth stage 15), Ipomea hederacea (IPOHE; growth stage 12), and Setaria viridis (SETVI; growth stage 14). Each spray test was replicated three times. The test plants were then grown in a glasshouse under controlled conditions (at 24/18° C. day/night; 16 hours light; 65% humidity) and watered twice a day.
(§4) The efficacy of the herbicide was assessed visually and expressed as a percentage of the leaf area killed. Samples were assessed at a time period of 21 days following application. The results shown in Table 2 below are mean averages over the two rates of fomesafen, the three replicates […].

[7] = tested on: Chenopodium album (CHEAL); test: as above; settings: fomesafen sodium salt SL, mean over 100 and 200 g/ha and 3 replicates; adjuvant 0.2% v/v (none in No Adjuvant rows); % leaf area killed, 21 days after application; Tests 1-4 separate runs
Description: as §1, with “fomesafen (as the sodium salt)” for “nicosulfuron”, “species,” for “species”, “light,” for “light;”, “Fomesafen sodium salt” for “Nicosulfuron”, “SL (soluble concentrate)” for “WG (water dispersible granule)”
as §3, §4

Ipomea hederacea (IPOHE) = test: as above; settings: fomesafen sodium salt SL, mean over 100 and 200 g/ha and 3 replicates; adjuvant 0.2% v/v (none in No Adjuvant rows); % leaf area killed, 21 days after application; Tests 1-4 separate runs
Description: as §1, with “fomesafen (as the sodium salt)” for “nicosulfuron”, “species,” for “species”, “light,” for “light;”, “Fomesafen sodium salt” for “Nicosulfuron”, “SL (soluble concentrate)” for “WG (water dispersible granule)”
as §3, §4

Setaria viridis (SETVI) [8] = test: as above; settings: fomesafen sodium salt SL, mean over 100 and 200 g/ha and 3 replicates; adjuvant 0.2% v/v (none in No Adjuvant rows); % leaf area killed, 21 days after application; Tests 1-4 separate runs
Description: as §1, with “fomesafen (as the sodium salt)” for “nicosulfuron”, “species,” for “species”, “light,” for “light;”, “Fomesafen sodium salt” for “Nicosulfuron”, “SL (soluble concentrate)” for “WG (water dispersible granule)”
as §3, §4

[9] = tested on: Alopecurus myosuroides (ALOMY); test: Adjuvant efficacy with pinoxaden, glasshouse spray test; settings: pinoxaden EC, mean over 7.5 and 15 g/ha and 3 replicates; adjuvant 0.2% v/v (none in No Adjuvant rows); % leaf area killed, 21 days after application; Tests 1-4 separate runs
Description: as §1, with “pinoxaden” for “nicosulfuron”, “species,” for “species”, “20/16°” for “24/18°”, “Pinoxaden” for “Nicosulfuron”, “EC (emulsifiable concentrate)” for “WG (water dispersible granule)”
(§5) The spray tests were also carried out using pinoxaden in conjunction with adjuvants 1-12. The adjuvants were added to the spray solution at a rate of 0.2% v/v unless otherwise stated. All spray solutions also contained 10% w/w of iso-Propanol. The weed species and their BBCH growth stage at spraying were Avena fatua (AVEFA; growth stage 12), Lolium perenne (LOLPE; growth stage 13), Alopecurus myosuroides (ALOMY; growth stage 13), and Setaria viridis (SETVI; growth stage 13-14). Each spray test was replicated three times. The test plants were then grown in a glasshouse under controlled conditions (at 20/16° C. day/night; 16 hours light; 65% humidity) and watered twice a day. The efficacy of the herbicide was assessed visually and expressed as a percentage of the leaf area killed. Samples were assessed at a time period of 21 days following application. The results shown in Table 4 below are mean averages over the two rates of pinoxaden, and the three replicates.

Avena fatua (AVEFA) = test: as above; settings: pinoxaden EC, mean over 7.5 and 15 g/ha and 3 replicates; adjuvant 0.2% v/v (none in No Adjuvant rows); % leaf area killed, 21 days after application; Tests 1-4 separate runs
Description: as §1, with “pinoxaden” for “nicosulfuron”, “species,” for “species”, “20/16°” for “24/18°”, “Pinoxaden” for “Nicosulfuron”, “EC (emulsifiable concentrate)” for “WG (water dispersible granule)”
as §5

Lolium perenne (LOLPE) = test: as above; settings: pinoxaden EC, mean over 7.5 and 15 g/ha and 3 replicates; adjuvant 0.2% v/v (none in No Adjuvant rows); % leaf area killed, 21 days after application; Tests 1-4 separate runs
Description: as §1, with “pinoxaden” for “nicosulfuron”, “species,” for “species”, “20/16°” for “24/18°”, “Pinoxaden” for “Nicosulfuron”, “EC (emulsifiable concentrate)” for “WG (water dispersible granule)”
as §5

Setaria viridis (SETVI) [10] = test: as above; settings: pinoxaden EC, mean over 7.5 and 15 g/ha and 3 replicates; adjuvant 0.2% v/v (none in No Adjuvant rows); % leaf area killed, 21 days after application; Tests 1-4 separate runs
Description: as §1, with “pinoxaden” for “nicosulfuron”, “species,” for “species”, “20/16°” for “24/18°”, “Pinoxaden” for “Nicosulfuron”, “EC (emulsifiable concentrate)” for “WG (water dispersible granule)”
as §5

[11] = tested on: four weed species (ALOMY, AVEFA, LOLPE, SETVI); test: Adjuvant efficacy with pinoxaden, glasshouse spray test, average over all species; settings: pinoxaden EC, mean over 7.5 and 15 g/ha, adjuvant 0.2% v/v (none in No Adjuvant rows), 21 days, average of ALOMY
Description: as §1, with “pinoxaden” for “nicosulfuron”, “species,” for “species”, “20/16°” for “24/18°”, “Pinoxaden” for “Nicosulfuron”, “EC (emulsifiable concentrate)” for “WG (water dispersible granule)”
as §5

SMILES | Mean % Herbicidal Activity ABUTH [1] | Mean % Herbicidal Activity CHEAL [2] | Mean % Herbicidal Activity DIGSA [3] | Mean % Herbicidal Activity SETVI (Setaria viridis (SETVI) [4]) | Mean % Herbicidal Activity Average over all Species [5] | Mean % Herbicidal Activity ABUTH [6] | Mean % Herbicidal Activity CHEAL [7] | Mean % Herbicidal Activity IPOHE (Ipomea hederacea (IPOHE)) | Mean % Herbicidal Activity SETVI (Setaria viridis (SETVI) [8]) | Mean % Herbicidal Activity ALOMY [9] | Mean % Herbicidal Activity AVEFA (Avena fatua (AVEFA)) | Mean % Herbicidal Activity LOLPE (Lolium perenne (LOLPE)) | Mean % Herbicidal Activity SETVI (Setaria viridis (SETVI) [10]) | Mean % Herbicidal Activity Average over all Species [11]
CCCCCCCCC=CCCCCCCCCOc1cc(OCCOCCOCCOCCOCCOCCOCCOCCOCCOCCOC)ncn1 [Adjuvant 10] | 58% | 80% | 88% | 97% | 81% | 56% and 28% | 60% and 88% | 92% and 50% | 65% and 17% | 9% | 80% | 25% | 89% | 50%
CCCCCCCCC=CCCCCCCCCOc1cc(OCCOCCOCCOCCOCCOCCOCCOCCOCCOCCOCCOCCOCCOCCOCCOCCOCCOCCOCCOCCOC)ncn1 [Adjuvant 11] | 64% | 82% | 88% | 94% | 82% | 48% | 80% | 98% | 39% | 11% | 41% | 15% | 84% | 38%
CCCCCCCCCCCCOc1cc(OCC(C)OCC(C)OCC(C)OC)ncn1 (stereo not drawn) [Adjuvant 12] | 66% | 83% | 93% | 96% | 85% | 74% | 80% | 98% | 77% | 23% | 87% | 76% | 94% | 70%
